Experimental findings from paper PMC10504751, “Chalcone/1,3,4-Oxadiazole/Benzimidazole hybrids as novel anti-proliferative agents inducing apoptosis and inhibiting EGFR & BRAFV^600E” (BMC Chemistry, 2023) are described below.

What all share (experiment): NCI one-dose SRB anti-proliferative screen
What all share (type): cell-based

One experiment relates to NCI-H522. The settings on record: Homo sapiens, read-out: Cell growth inhibition %. In a few lines: (§1)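 Single dose, 10 µM; SRB colorimetric read-out; run as part of the 60-line, nine-subpanel tumour panel.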
Another experiment relates to BT-549. The settings on record: Homo sapiens, read-out: Cell growth inhibition %. In a few lines: as §1
The next experiment concerns SK-MEL-5. The settings on record: Homo sapiens, read-out: Cell growth inhibition %. In a few lines:
as §1

For another experiment, the system named is MCF7. The settings on record: Homo sapiens, read-out: Cell growth inhibition %. An outline of the steps: as §1
In the next experiment the test system is UO-31. The settings on record: Homo sapiens, read-out: Cell growth inhibition %. In a few lines: as §1
Another experiment has as its system MDA-MB-231/ATCC. The settings on record: Homo sapiens, read-out: Cell growth inhibition %. An outline of the steps: as §1
Another experiment has as its system NCI-H23. The settings on record: Homo sapiens, read-out: Cell growth inhibition %. An outline of the steps:
as §1

The subject of a further experiment is NCI-H226. The settings on record: Homo sapiens, read-out: Cell growth inhibition %. In a few lines:
as §1

The test system of the next experiment is SK-OV-3. The settings on record: Homo sapiens, read-out: Cell growth inhibition %. In a few lines: as §1
The next experiment concerns HOP-62. The settings on record: Homo sapiens, read-out: Cell growth inhibition %. In a few lines:
as §1

In the next experiment the test system is IGROV1. The settings on record: Homo sapiens, IGROV-1, read-out: Cell growth inhibition %. An outline of the steps:
as §1

In another experiment the test system is HCC-2998. The settings on record: Homo sapiens, read-out: Cell growth inhibition %. An outline of the steps:
as §1

For the next experiment, the system named is TK-10. The settings on record: Homo sapiens, read-out: Cell growth inhibition %. An outline of the steps:
as §1

The next experiment concerns SR. The settings on record: Homo sapiens, read-out: Cell growth inhibition %. An outline of the steps:
as §1

The next experiment relates to CAKI-1. The settings on record: Homo sapiens, read-out: Cell growth inhibition %. An outline of the steps: as §1
The test system of the next experiment is SNB-19. The settings on record: Homo sapiens, read-out: Cell growth inhibition %. In a few lines:
as §1

For the next experiment, the system named is NCI-H322M. The settings on record: Homo sapiens, read-out: Cell growth inhibition %. An outline of the steps:
as §1

For the next experiment, the system named is 786-0. The settings on record: Homo sapiens, read-out: Cell growth inhibition %. An outline of the steps:
as §1

The subject of a further experiment is MDA-MB-435. The settings on record: Homo sapiens, read-out: Cell growth inhibition %. In a few lines:
as §1

In the next experiment the test system is SF-295. The settings on record: Homo sapiens, read-out: Cell growth inhibition %. An outline of the steps: as §1
A further experiment has as its system U251. The settings on record: Homo sapiens, U-251, read-out: Cell growth inhibition %. In a few lines: as §1
The subject of a further experiment is A498. The settings on record: Homo sapiens, read-out: Cell growth inhibition %. An outline of the steps:
as §1

A further experiment deals with OVCAR-8. The settings on record: Homo sapiens, read-out: Cell growth inhibition %. In a few lines:
as §1

The subject of the next experiment is EKVX. The settings on record: Homo sapiens, read-out: Cell growth inhibition %. In a few lines:
as §1

Setting [1] is: NCI-H522, Non-Small Cell Lung Cancer, NCI one dose.
The mark [2] stands for this setting: BT-549, Breast cancer, NCI one dose.
Setting [3] is: SK-MEL-5, Melanoma, NCI one dose.
[4] abbreviates: MCF7, Breast cancer, NCI one dose.
The mark [5] stands for this setting: UO-31, Renal cancer, NCI one dose.
The mark [6] stands for this setting: MDA-MB-231/ATCC, Breast cancer, NCI one dose.
Where [7] appears, read: NCI-H23, Non-Small Cell Lung Cancer, NCI one dose.
The mark [8] stands for this setting: NCI-H226, Non-Small Cell Lung Cancer, NCI one dose.
[9] abbreviates: SK-OV-3, Ovarian Cancer, NCI one dose.
Setting [10] is: HOP-62, Non-Small Cell Lung Cancer, NCI one dose.
[11] abbreviates: IGROV1, Ovarian Cancer, NCI one dose.
Setting [12] is: HCC-2998, Colon cancer, NCI one dose.
Where [13] appears, read: TK-10, Renal cancer, NCI one dose.
The mark [14] stands for this setting: CAKI-1, Renal cancer, NCI one dose.
Setting [15] is: SNB-19, CNS Cancer, NCI one dose.
The mark [16] stands for this setting: NCI-H322M, Non-Small Cell Lung Cancer, NCI one dose.
Where [17] appears, read: 786-0, Renal cancer, NCI one dose.
Where [18] appears, read: MDA-MB-435, Melanoma, NCI one dose.
[19] abbreviates: SF-295, CNS Cancer, NCI one dose.
Where [20] appears, read: A498, Renal cancer, NCI one dose.
[21] abbreviates: OVCAR-8, Ovarian Cancer, NCI one dose.
[22] abbreviates: EKVX, Non-Small Cell Lung Cancer, NCI one dose.

Where two headings read alike, the source gives them in different places.

`COc1ccc(/C=C/C(=O)c2ccc(NC(=O)CSc3nnc(-c4ccc5[nH]c(-c6ccc(OC)cc6)nc5c4)o3)cc2)cc1` [Compound 7m, 2-{5-[2-(4-Methoxyphenyl)-1 H-benzo[d]imidazol-5-yl]-1,3,4-oxadiazol-2-ylthio}-N-{4-[(E)-3-(4-methoxyphenyl)acryloyl]phenyl}acetamide]: the inhibition at 10 µM amounted to 22.8% with NCI-H522 (setting [1]); 14.3% in the experiment with BT-549 (setting [2]); 22.2% with SK-MEL-5 (setting [3]); 17.2% in the experiment on MCF7 (setting [4]); 7.02% in the experiment with UO-31 (setting [5]); 9.52% in the experiment with MDA-MB-231/ATCC (setting [6]). Also, the inhibition at 10 µM in the experiment with NCI-H23 (setting [7]) was 9.57%; with NCI-H226 (setting [8]) it was 16%; in the experiment on SK-OV-3 (setting [9]), 0%; in the experiment with HOP-62 (setting [10]) it was 4.92%; with IGROV1 (setting [11]), 3.99%; in the experiment with HCC-2998 (setting [12]) it was 0%. Moreover, the inhibition at 10 µM came to 0% in the experiment with TK-10 (setting [13]); 40.5% with SR (SR, Leukemia, NCI one dose); 6.15% in the experiment on CAKI-1 (setting [14]); 3.7% in the experiment with SNB-19 (setting [15]); 3.18% in the experiment on NCI-H322M (setting [16]); 0% in the experiment on 786-0 (setting [17]). Moreover, the inhibition at 10 µM in the experiment on MDA-MB-435 (setting [18]) amounted to 7.11%; with SF-295 (setting [19]), 2.1%; with U251 (U251, CNS Cancer, NCI one dose), 15.9%; with A498 (setting [20]), 0%; with OVCAR-8 (setting [21]), 23.4%; with EKVX (setting [22]), 9.73%.
`COc1ccc(/C=C/C(=O)c2ccc(NC(=O)CSc3nnc(-c4ccc5[nH]c(-c6ccc(OC)c(OC)c6)nc5c4)o3)cc2)cc1` [Compound 7r, 2-{5-[2-(3,4-Dimethoxyphenyl)-1 H-benzo[d]imidazol-5-yl]-1,3,4-oxadiazol-2-ylthio}-N-{4-[(E)-3-(4-methoxyphenyl)acryloyl]phenyl}acetamide]: the inhibition at 10 µM with NCI-H522 (NCI-H522 (Non-Small Cell Lung Cancer), NCI one dose 10 µM) came to 14.3%; in the experiment on BT-549 (BT-549 (Breast Cancer), NCI one dose 10 µM), 5.47%; in the experiment with SK-MEL-5 (SK-MEL-5 (Melanoma), NCI one dose 10 µM), 10.8%; in the experiment on MCF7 (MCF7 (Breast Cancer), NCI one dose 10 µM), 24.7%; in the experiment with UO-31 (UO-31 (Renal Cancer), NCI one dose 10 µM), 12.4%; in the experiment with MDA-MB-231/ATCC (MDA-MB-231/ATCC (Breast Cancer), NCI one dose 10 µM) it was 4.13%. The inhibition at 10 µM in the experiment on NCI-H23 (NCI-H23 (Non-Small Cell Lung Cancer), NCI one dose 10 µM) is 5.15%; with NCI-H226 (NCI-H226 (Non-Small Cell Lung Cancer), NCI one dose 10 µM), 2.08%; in the experiment with SK-OV-3 (SK-OV-3 (Ovarian Cancer), NCI one dose 10 µM), 0%; in the experiment on HOP-62 (HOP-62 (Non-Small Cell Lung Cancer), NCI one dose 10 µM) it was 0%; in the experiment on IGROV1 (IGROV1 (Ovarian Cancer), NCI one dose 10 µM), 2.07%; in the experiment with HCC-2998 (HCC-2998 (Colon Cancer), NCI one dose 10 µM), 0%. The inhibition at 10 µM was found to be 0% with TK-10 (TK-10 (Renal Cancer), NCI one dose 10 µM); 30.6% in the experiment with SR (SR (Leukemia), NCI one dose 10 µM); 0.08% in the experiment with CAKI-1 (CAKI-1 (Renal Cancer), NCI one dose 10 µM); 0% with SNB-19 (SNB-19 (CNS Cancer), NCI one dose 10 µM); 1.05% with NCI-H322M (NCI-H322M (Non-Small Cell Lung Cancer), NCI one dose 10 µM); 0% in the experiment with 786-0 (786-0 (Renal Cancer), NCI one dose 10 µM). For the same compound, the inhibition at 10 µM with MDA-MB-435 (MDA-MB-435 (Melanoma), NCI one dose 10 µM) was found to be 0%; with SF-295 (SF-295 (CNS Cancer), NCI one dose 10 µM), 3.2%; in the experiment with U251 (U251 (CNS Cancer), NCI one dose 10 µM) it was 0%; in the experiment with A498 (A498 (Renal Cancer), NCI one dose 10 µM), 0%; with OVCAR-8 (OVCAR-8 (Ovarian Cancer), NCI one dose 10 µM), 11.1%; in the experiment on EKVX (EKVX (Non-Small Cell Lung Cancer), NCI one dose 10 µM), 3.51%.
Take `COc1ccc(-c2nc3cc(-c4nnc(SCC(=O)Nc5ccc(C(=O)/C=C/c6ccc(Cl)cc6)cc5)o4)ccc3[nH]2)cc1` [Compound 7l, 2-{5-[2-(4-Methoxyphenyl)-1 H-benzo[d]imidazol-5-yl]-1,3,4-oxadiazol-2-ylthio}-N-{4-[(E)-3-(4-chlorophenyl)acryloyl]phenyl}acetamide]: the inhibition at 10 µM turned out to be 4.71% with NCI-H522 (setting [1]); 1.84% in the experiment on BT-549 (setting [2]); 1.12% in the experiment with SK-MEL-5 (setting [3]); 22% in the experiment with MCF7 (setting [4]); 14.7% with UO-31 (setting [5]); 5.19% in the experiment with MDA-MB-231/ATCC (setting [6]). Moreover, the inhibition at 10 µM in the experiment with NCI-H23 (setting [7]) came to 5.55%; in the experiment on NCI-H226 (setting [8]) it was 5.85%; in the experiment with SK-OV-3 (setting [9]) it was 0%; in the experiment with HOP-62 (setting [10]) it was 0.53%; with IGROV1 (setting [11]) it was 12.8%; with HCC-2998 (setting [12]) it was 0%. For the same compound, the inhibition at 10 µM turned out to be 0% with TK-10 (setting [13]); 31.8% in the experiment with SR (SR, Leukemia, NCI one dose); 2.8% with CAKI-1 (setting [14]); 0% in the experiment on SNB-19 (setting [15]); 0% in the experiment on NCI-H322M (setting [16]); 0.91% in the experiment with 786-0 (setting [17]). The inhibition at 10 µM with MDA-MB-435 (setting [18]) was 0.7%; with SF-295 (setting [19]), 4.12%; with U251 (U251, CNS Cancer, NCI one dose) it was 5.67%; in the experiment with A498 (setting [20]), 15.7%; in the experiment with OVCAR-8 (setting [21]) it was 0%; with EKVX (setting [22]), 0.26%.
